“Also recorded” adds a separate entry of the source.
How the values were obtained:
Test in all cases: Growth inhibition by 2-phenylethanol in aerobic culture (OD610)
Type in all cases: cell-based
Pseudomonas putida S12 = details: aerobic shaking culture 30° C., LB(+glucose)-liquid medium
Protocol: Tests regarding growth inhibition by 2-phenylethanol in aerobic culture were carried out on Corynebacterium glutamicum, Escherichia coli, Pseudomonas putida, and Kluyveromyces marxianus. Pseudomonas putida S12 was applied to an LB-agar plate [containing 1% polypeptone, 0.5% yeast extract, 0.5% sodium chloride, and 1.5% agar], and was left to stand at 30° C. for 15 hours in a dark place. One platinum loop of Pseudomonas putida S12 grown on the plate described above was inoculated in a test tube having therein 10 ml of an LB(+glucose)-liquid medium [containing 1% polypeptone, 0.5% yeast extract, 0.5% sodium chloride, and 0.4% glucose], and was subjected to aerobic shaking culture at 33° C. for 13 hours. The Pseudomonas putida S12 strain grown under the above-described conditions was inoculated in 100 ml of the LB(+glucose)-liquid medium so that the initial bacterial cell concentration OD610=0.05 was achieved. Simultaneously, 2-phenylethanol was added so that the final concentrations thereof became 0, 10, 20, 30, 40, and 50 mM, and aerobic shaking culture was carried out at 30° C. The growth of bacterial cells was determined by measuring the absorbance of OD610.

[1] = tested on: Corynebacterium glutamicum R; details: aerobic shaking culture 33° C., A-liquid medium
Protocol: Tests regarding growth inhibition by 2-phenylethanol in aerobic culture were carried out on Corynebacterium glutamicum, Escherichia coli, Pseudomonas putida, and Kluyveromyces marxianus. Corynebacterium glutamicum R was applied to an A-agar plate (the same as that described above), and was left to stand in a dark place at 33° C. for 15 hours. One platinum loop of Corynebacterium glutamicum R grown on the plate described above was inoculated in a test tube having therein 10 ml of the A-liquid medium, and aerobic shaking culture was carried out at 33° C. for 13 hours. Corynebacterium glutamicum R grown under the above-described conditions was inoculated in 100 ml of the A-liquid medium (the same as that described above) so that the initial bacterial cell concentration OD610=0.05 was achieved. Simultaneously, 2-phenylethanol was added so that the final concentrations thereof became 0, 10, 20, 30, 40, and 50 mM, and aerobic shaking culture was carried out at 33° C. The growth of bacterial cells was determined by measuring the absorbance of OD610.

Escherichia coli MG1655 = details: aerobic shaking culture, LB-liquid medium
Protocol: Tests regarding growth inhibition by 2-phenylethanol in aerobic culture were carried out on Corynebacterium glutamicum, Escherichia coli, Pseudomonas putida, and Kluyveromyces marxianus. Escherichia coli MG1655 was applied to an LB-agar plate [containing 1% polypeptone, 0.5% yeast extract, 0.5% sodium chloride, and 1.5% agar], and was left to stand at 37° C. for 15 hours in a dark place. One platinum loop of Escherichia coli MG1655 grown on the plate described above was inoculated in a test tube having therein 10 ml of an LB-liquid medium [containing 1% polypeptone, 0.5% yeast extract, and 0.5% sodium chloride], and was subjected to aerobic shaking culture at 37° C. for 13 hours. Escherichia coli MG1655 grown under the above-described conditions was inoculated in 100 ml of the LB-liquid medium so that the initial bacterial cell concentration OD610=0.05 was achieved. Simultaneously, 2-phenylethanol was added so that the final concentrations thereof became 0, 10, 20, 30, 40, and 50 mM, and aerobic shaking culture was carried out at 33° C. The growth of bacterial cells was determined by measuring the absorbance of OD610.

Kluyveromyces marxianus = details: aerobic shaking culture 40° C., YPD-liquid medium
Protocol: Tests regarding growth inhibition by 2-phenylethanol in aerobic culture were carried out on Corynebacterium glutamicum, Escherichia coli, Pseudomonas putida, and Kluyveromyces marxianus. Further, Kluyveromyces marxianus was applied to a YPD-agar plate [containing 2% polypeptone, 1% yeast extract, 2% glucose, and 1.5% agar], and was left to stand at 30° C. for 15 hours in a dark place. One platinum loop of Kluyveromyces marxianus grown on the plate described above was inoculated in a test tube having therein 10 ml of a YPD-liquid medium [containing 2% polypeptone, 1% yeast extract, and 2% glucose], and was subjected to aerobic shaking culture at 40° C. for 13 hours. Kluyveromyces marxianus grown under the above-described conditions was inoculated in 100 ml of the YPD-liquid medium so that the initial bacterial cell concentration OD610=0.05 was achieved. Simultaneously, 2-phenylethanol was added so that the final concentrations thereof became 0, 10, 20, 30, 40, and 50 mM, and aerobic shaking culture was carried out at 40° C. The growth of bacterial cells was determined by measuring the absorbance of OD610.

## OCCc1ccccc1 [2-phenylethanol]
Pseudomonas putida S12; 20 mM 2-phenylethanol
  growth of Pseudomonas putida: strongly inhibited
Pseudomonas putida S12; 30 mM 2-phenylethanol
  growth of Pseudomonas putida: substantially completely inhibited
[1]; 20 mM 2-phenylethanol
  growth of Corynebacterium glutamicum: not influenced at all
[1]; 30 mM 2-phenylethanol
  growth of Corynebacterium glutamicum: delayed, but was improved 24 hours after
Escherichia coli MG1655; 20 mM 2-phenylethanol
  growth of Escherichia coli: significantly inhibited; also recorded: strongly inhibited
Escherichia coli MG1655; 30 mM 2-phenylethanol
  growth of Escherichia coli: substantially completely inhibited
Kluyveromyces marxianus; 20 mM 2-phenylethanol
  growth of Kluyveromyces marxianus: strongly inhibited
Kluyveromyces marxianus; 30 mM 2-phenylethanol
  growth of Kluyveromyces marxianus: substantially completely inhibited

— US12006527B2, “Coryneform bacterium transformant and method for producing 2-phenylethanol using same” (Research Institute of Innovative Technology for the Earth, priority 2018, dated 2024)
